This note sets out measurements from patent publication US20250387352A1 (SpringWorks Therapeutics, Inc., priority 2024, published 2025).

Data set [1] relates to NF1-associated plexiform neurofibromas (PNs). As to the kind of experiment: Phase 2b trial of mirdametinib in adult and pediatric patients with NF1-associated inoperable plexiform neurofibromas: efficacy by BICR volumetric MRI (REiNS). In kind it is in vivo, human. How it is done:
Study treatment was administered orally at a twice daily (BID) dose specified in the table below. Dosing was on a 28-day Cycle (4-week course) with a 3 week on/1 week off schedule. The treatment period will last for up to 24 Cycles followed by a 30-day Safety Follow-Up period.
A partial response was defined as PN decrease ≥20% compared to baseline using centrally read MRI volumetric analysis.
The major efficacy outcome measure was confirmed objective response rate (ORR), defined as the percentage of patients with complete response (disappearance of the target PN) or confirmed partial response (≥20% reduction in PN volume confirmed at a subsequent tumor assessment within 2-6 months during the 24-cycle treatment phase). Responses were assessed by blinded independent central review (BICR) using volumetric magnetic resonance imaging (MRI) analysis per Response Evaluation in Neurofibromatosis and Schwannomatosis (REINS) criteria. A secondary efficacy objective was to determine the duration of response for patients who achieved a confirmed objective response.

A short description of data set [2]: Clinical pharmacokinetic parameters of mirdametinib (Table A). The note with it: human, in vivo.
A short description of data set [3]: Metabolism and excretion of mirdametinib (radioactivity recovery). In kind it is in vivo.

Take `O=C(NOC[C@H](O)CO)c1ccc(F)c(F)c1Nc1ccc(I)cc1F` (single isomer, unassigned) [mirdametinib]: the “median time to onset of response” value is listed as 7.8 months in data set [1] (adult cohort) and 7.9 months in data set [1] (pediatric cohort). Further, the “ORR also considering confirmed objective response after cycle 24” value in data set [1] (adults) was found to be 45%; in data set [1] (pediatric patients), 54%. The Time to steady-state result in data set [2] is on record as “Approximately 6 days”. In addition, the entries for the “Excretion: Radioactivity” value in data set [3] (In feces) and in data set [3] (In urine) were “In feces: 27%” and “In urine: 68%”, respectively. Also, the “Excretion: Unchanged mirdametinib” value in data set [3] (In urine) is “In urine: 0.7%”; in data set [3] (In urine and feces), “In urine and feces: 9%”.
